Columns and labels:
MMP-2 = target: T1, MMP-2 (Homo sapiens, UniProt P08253); test: In-vitro fluorescence assay of MMP-2 activity; type: biochemical; settings: recombinant human MMP-2; read-out: MMP-2 IC50
T1 construct: purchased Oncogene Research Products (Calbiochem) PF023
T1 sequence (P08253 110-660): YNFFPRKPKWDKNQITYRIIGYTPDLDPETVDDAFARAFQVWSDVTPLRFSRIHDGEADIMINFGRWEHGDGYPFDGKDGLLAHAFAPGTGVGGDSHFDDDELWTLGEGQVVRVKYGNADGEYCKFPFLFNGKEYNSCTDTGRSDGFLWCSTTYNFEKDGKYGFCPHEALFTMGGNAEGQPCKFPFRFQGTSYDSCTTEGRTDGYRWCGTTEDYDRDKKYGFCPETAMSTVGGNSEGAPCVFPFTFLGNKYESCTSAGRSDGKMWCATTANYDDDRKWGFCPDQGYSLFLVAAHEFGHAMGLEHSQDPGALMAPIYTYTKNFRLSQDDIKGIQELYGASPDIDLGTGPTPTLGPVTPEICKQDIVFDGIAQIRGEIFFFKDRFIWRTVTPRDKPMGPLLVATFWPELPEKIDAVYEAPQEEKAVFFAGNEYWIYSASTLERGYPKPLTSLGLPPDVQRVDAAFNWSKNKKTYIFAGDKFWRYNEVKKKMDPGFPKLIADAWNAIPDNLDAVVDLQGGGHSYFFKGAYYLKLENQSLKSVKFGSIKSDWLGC

MMP-13 = target: T2, MMP-13 (Homo sapiens, UniProt P45452); test: In-vitro fluorescence assay of MMP-13 activity; type: biochemical; settings: recombinant human catalytic domain of MMP-13; read-out: MMP-13 IC50
T2 construct: made in house

IC50 (MMP-2) [nM]	IC50 (MMP-13) [nM]	SMILES
1650	12	CCS(=O)(=O)Nc1cccc2oc(C(=O)Nc3ccc(-c4ccc(S(=O)(=O)N[C@H](C(=O)O)C(C)C)cc4)cc3)c(C)c12 [Example 68, L-2-{4′-[(4-Ethanesulfonylamino-3-methyl-benzofuran-2-carbonyl)-amino]-biphenyl-4-sulfonylamino}-3-methyl-butyric acid]
4	1.3	CC(=O)Nc1ccc2oc(C(=O)Nc3ccc(-c4ccc(S(=O)(=O)NC(C(=O)O)C(C)C)cc4)cc3)cc2c1 (stereo in doubt) [Example 9, N-{[4′-({[5-(acetylamino)-1-benzofuran-2-yl]carbonyl}amino)-1,1′-biphenyl-4-yl]sulfonyl}-L-valine]
78.4	3.9	CC(C)Oc1cccc2oc(C(=O)Nc3ccc(-c4ccc(S(=O)(=O)N[C@H](C(=O)O)C(C)C)cc4)cc3)cc12 [Example 103, N-[(4′-{[(4-Isopropoxy-1-benzofuran-2-yl)carbonyl]amino}-1,1′-biphenyl-4-yl)sulfonyl]-L-valine]
	1020	COc1c(C(C)=O)ccc2oc(C(=O)Nc3ccc(-c4ccc(S(=O)(=O)N[C@H](C(=O)O)C(C)C)cc4)cc3)c(C)c12 [Example 121, (S)-2-{4′-[(5-Acetyl-4-methoxy-3-methyl-benzofuran-2-carbonyl)-amino]-biphenyl-4-sulfonylamino}-3-methyl-butyric acid]
	121	Cc1nc(-c2ccc(C(F)(F)F)cc2)sc1C(=O)Nc1ccc(-c2ccc(S(=O)(=O)N[C@H](C(=O)O)C(C)C)cc2)cc1 [Example 66, (S)-3-Methyl-2-(4′-{[4-methyl-2-(4-trifluoromethyl-phenyl)-thiazole-5-carbonyl]-amino}-biphenyl-4-sulfonylamino)-butyric acid]
3980	8.5	Cc1c(C(=O)Nc2ccc(-c3ccc(S(=O)(=O)N[C@H](C(=O)O)C(C)C)cc3)cc2)oc2cccc(NS(=O)(=O)c3cccs3)c12 [Example 72, L-3-Methyl-2-(4′-{[3-methyl-4-(thiophene-2-sulfonylamino)-benzofuran-2-carbonyl]-amino}-biphenyl-4-sulfonylamino)-butyric acid]
60	1.7	Cc1c(C(=O)Nc2ccc(-c3ccc(S(=O)(=O)N[C@H](C(=O)O)C(C)C)cc3)cc2)oc2ccc3ccccc3c12 [Example 154, L-3-Methyl-2-{4′-[(1-methyl-naphtho[2,1-b]furan-2-carbonyl)-amino]-biphenyl-4-sulfonylamino}-butyric acid]
1520	5.7	COCCc1cccc2oc(C(=O)Nc3ccc(-c4ccc(S(=O)(=O)N[C@H](C(=O)O)C(C)C)cc4)cc3)c(C)c12 [Example 102, N-{[4′-({[4-(2-methoxyethyl)-3-methyl-1-benzofuran-2-yl]carbonyl}amino)-1,1′-biphenyl-4-yl]sulfonyl}-L-valinate]
1840	8.7	COC(=O)COc1cccc2oc(C(=O)Nc3ccc(-c4ccc(S(=O)(=O)N[C@H](C(=O)O)C(C)C)cc4)cc3)c(C)c12 [Example 158, L-2-{4′-[(4-Methoxycarbonylmethoxy-3-methyl-benzofuran-2-carbonyl)-amino]-biphenyl-4-sulfonylamino}-3-methyl-butyric acid]
	222	C=C(Cl)c1ccc2oc(C(=O)Nc3ccc(-c4ccc(S(=O)(=O)N[C@H](C(=O)O)C(C)C)cc4)cc3)c(C)c2c1OC [Example 122, (S)-2-(4′-{[5-(1-Chloro-vinyl)-4-methoxy-3-methyl-benzofuran-2-carbonyl]-amino}-biphenyl-4-sulfonylamino)-3-methyl-butyric acid]
1460	8.5	Cc1c(C(=O)Nc2ccc(-c3ccc(S(=O)(=O)N[C@@H](C(=O)O)C(C)C)cc3)cc2)oc2cccc(NS(C)(=O)=O)c12 [Example 41, D-2-{4-[(4-Methanesulfonylamino-3-methyl-benzofuran-2-carbonyl)-amino]-biphenyl-4-sulfonylamino}-3-methyl-butyric acid]
59.5	2.8	Cc1cccc2oc(C(=O)Nc3ccc(-c4ccc(S(=O)(=O)N[C@H](C(=O)O)C(C)C)cc4)cc3)nc12 [Example 128, (S)-3-Methyl-2-{4′-[(4-methyl-benzooxazole-2-carbonyl)-amino]-biphenyl-4-sulfonylamino}-butyric acid]
	10.4	COc1cccc2cc(C(=O)Nc3ccc(-c4ccc(S(=O)(=O)N[C@H](C(=O)O)C(C)C)cc4)cc3)oc12 [Example 5, N-[(4′-{[(7-methoxy-1-benzofuran-2-yl)carbonyl]amino}-1,1′-biphenyl-4-yl)sulfonyl]-L-valine]
	1.5	CC(C)[C@H](NS(=O)(=O)c1ccc(-c2ccc(NC(=O)c3cc4cc(N)ccc4o3)cc2)cc1)C(=O)O [Example 7, N-[(4′-{[(5-amino-1-benzofuran-2-yl)carbonyl]amino}-1,1′-biphenyl-4-yl)sulfonyl]-L-valine]
	323	CC(C)[C@@H](C(=O)O)N(Cc1cccnc1)S(=O)(=O)c1ccc(-c2ccc(NC(=O)c3cc4ccccc4o3)cc2)cc1 [Example 81, N-({4′-[(1-Benzofuran-2-ylcarbonyl)amino]-1,1′-biphenyl-4-yl}sulfonyl)-N-(pyridin-3-ylmethyl)-L-valine]
	220	CC(C)[C@H](NS(=O)(=O)c1ccc(-c2ccc(NC(=O)c3oc4ccccc4c3-c3ccccc3)cc2)cc1)C(=O)O [Example 54, L-3-Methyl-2-{4′-[(3-phenyl-benzofuran-2-carbonyl)-amino]-biphenyl-4-sulfonylamino}-butyric acid]
	286	COc1cc(OC)c2c(C)c(C(=O)Nc3ccc(-c4ccc(S(=O)(=O)N[C@H](C(=O)O)C(C)C)cc4)cc3)oc2c1C [Example 44, L-2-{4′-[(4,6-Dimethoxy-3,7-dimethyl-benzofuran-2-carbonyl)-amino]-biphenyl-4-sulfonylamino}-3-methyl-butyric acid]
	3.1	CC(C)[C@H](NS(=O)(=O)c1ccc(-c2ccc(NC(=O)c3cc4ccccc4o3)cn2)cc1)C(=O)O [Example 76, 4-{5-[(Benzofuran-2-carbonyl)-amino]-pyridin-2-yl}-benzenesulfonyl-L-valine]
	9.9	Cc1cc(-c2cccc3oc(C(=O)Nc4ccc(-c5ccc(S(=O)(=O)N[C@H](C(=O)O)C(C)C)cc5)cc4)c(C)c23)on1 [Example 35, L-3-Methyl-2-(4′-{[3-methyl-4-(3-methyl-isoxazol-5-yl)-benzofuran-2-carbonyl]-amino}-biphenyl-4-sulfonylamino)-butyric acid]
	1.9	COCCCc1cccc2oc(COc3ccc(-c4ccc(S(=O)(=O)N[C@H](C(=O)O)C(C)C)cc4)cc3)c(C)c12 [Example 147, N-[(4′-{[4-(3-methoxypropyl)-3-methyl-1-benzofuran-2-yl]methoxy}-1,1′-biphenyl-4-yl)sulfonyl]-L-valine]
	2870	CC(C)[C@H](NS(=O)(=O)c1ccc(-c2ccc(NS(=O)(=O)c3cccs3)cc2)cc1)C(=O)O [Example 170, (S)-3-Methyl-2-[4′-(thiophene-2-sulfonylamino)-biphenyl-4-sulfonylamino]-butyric acid]
	294	CC(C)[C@H](NS(=O)(=O)c1ccc(-c2ccc(NC(=O)c3oc4cccc5c4c3CN(C)CC5)cc2)cc1)C(=O)O [Example 85, N-[(4′-{[(4-Methyl-3,4,5,6-tetrahydrofuro[4,3,2-ef][3]benzazepin-2-yl)carbonyl]amino}-1,1′-biphenyl-4-yl)sulfonyl]-L-valine]
	5600	CC(C)[C@@H](C(=O)O)N(C)S(=O)(=O)c1ccc(-c2ccc(NC(=O)c3cc4ccccc4o3)cc2)cc1 [Example 78, N-({4′-[(1-Benzofuran-2-ylcarbonyl)amino]-1,1′-biphenyl-4-yl}sulfonyl)-N-methyl-L-valine]
2		CC(C)[C@H](NS(=O)(=O)c1ccc(-c2ccc(NC(=O)c3csnn3)cc2)cc1)C(=O)O [Example 163, N-({4′-[(1,2,3-thiadiazol-4-ylcarbonyl)amino]-1,1′-biphenyl-4-yl}sulfonyl)-L-valine]

SMILES	IC50 (MMP-2) [nM]	IC50 (MMP-13) [nM]
CC(C)C[C@H](NS(=O)(=O)c1ccc(-c2ccc(NC(=O)c3cc4ccccc4o3)cc2)cc1)C(=O)O [Example 18, N-({4′-[(1-Benzofuran-2-ylcarbonyl)amino]-1,1′-biphenyl-4-yl}sulfonyl)-L-leucine]	8.4	2.2
CCc1ccc2oc(C(=O)Nc3ccc(-c4ccc(S(=O)(=O)N[C@H](C(=O)O)C(C)C)cc4)cc3)c(C)c2c1O [Example 90, N-[(4′-{[(5-Ethyl-4-hydroxy-3-methyl-1-benzofuran-2-yl)carbonyl]amino}-1,1′-biphenyl-4-yl)sulfonyl]-L-valine]	1760	7.1
CC(C)[C@H](NS(=O)(=O)c1ccc(-c2ccc(NC(=O)c3cc4c(OCc5ccccc5)cccc4o3)cc2)cc1)C(=O)O [Example 13, 4′-[(4-Benzyloxy-benzofuran-2-carbonyl)-amino]-biphenyl-4-sulfonyl-L-valine]	62	
O=C(Nc1ccc(-c2ccc(S(=O)(=O)N[C@@H](Cc3cnc[nH]3)C(=O)O)cc2)cc1)c1cc2ccccc2o1 [Example 17, N-({4′-[(1-Benzofuran-2-ylcarbonyl)amino]-1,1′-biphenyl-4-yl}sulfonyl)-L-Histidine]	37	
